Structures can show the parent of a compound that is named as a salt. Where two headings read alike, the source gives them in different places.
What was measured:
lung cancer cells (A549) [1] = conditions: BBB mimicking model, FIG. 5B
Description: In addition, the BBB mimicking model was manufactured in the same method of manufacturing the lung mimicking model, but astrocytes (Human Astrocytes) (ScienCell, #1800) were used instead of fibroblasts, human brain microvascular endothelial cells (HBMVEC) (Cell systems, ACBRI 376) were used instead of HUVECs as vascular endothelial cells, and the total culture periods were set to be different due to the difference in cell proliferation rates between the lung mimicking model and the BBB mimicking model. […] In the experimental method, as described in Example 1 above, blood vessel cells were treated with CD31, lung cancer cells were treated with cytokeratin 8, and the cells were photographed by using a confocal microscope, Carl Zeiss, LSM710.

lung cancer cells (A549) [2] = conditions: lung mimicking model, FIG. 5A
Protocol: Then, gelation was allowed at room temperature for 15 minutes. Then, after coating with collagen (0.03 mg/ml, 1 VL content) (sigma, collagen type I solution) and fibronectin (0.001%, 5 mg) (Sigma, F0895) for two hours at 37° C., a total of 20 μl of 4×10^6/ml of HUVEC (LONZA, HUVEC-Umbil vein, Pooled cells) as vascular endothelial cells was added into one of the cell culture channels, the chip was raised at 90°, and the cells were cultured for one to two hours so as to be adhered in a direction of the gel layer formed in the middle. Then, put the chip down to its original state, replace the medium, and when the vascular endothelial cells form one blood vessel layer starting from the gel layer in the middle, a total of 20 μl of 1×10^6/ml lung cancer cells (A549) were put on the same layer, the chip was raised at 90° and cultured overnight so that the chip was attached in the direction of the gel layer formed in the middle. Then, the chip was put down again, the medium was replaced, and cultured for 5 days, and it was confirmed whether the lung cancer cells migrated to the middle gel layer. After that, the chip was put down to the original state again, the medium was replaced, the cells were cultured for five days, and whether the lung cancer cells migrated to the middle gel layer was checked. […]

Which “metastasis of lung cancer cells” value (lung cancer cells (A549) [1]; 1 μg/ml and 5 μg/ml, treated for one day or six days, confocal microscope) does the source give for `c1cc(CN2CCCNCCNCCCNCC2)ccc1CN1CCCNCCNCCCNCC1` [AMD3100, AMD3100 (octahydrochloride)] here?
Its value is “reduced more”.

And the metastasis suppression (lung cancer cells (A549) [1]; 1 μg/ml treated for one day, compared among treatment groups)?
The metastasis suppression was “best metastasis suppression”.

What about the “metastasis of lung cancer cells” value (lung cancer cells (A549) [2]; 1 μg/ml and 5 μg/ml, treated for one day or six days, compared to the group to which AMD3100 is not treated, confocal microscope) of the same compound?
The value was “generally reduced”.

And the metastasis suppression (lung cancer cells (A549) [2]; 1 μg/ml treated for six days, compared among treatment groups)?
The metastasis suppression was “best metastasis suppression”.

Source: patent US20250198987A1, “SYSTEM FOR MEASURING METASTATIC POTENTIAL OF CANCER CELLS AND METHOD FOR MEASURING METASTATIC POTENTIAL OF CANCER CELLS BY USING SAME” (Seoul National University Hospital, priority 2020, published 2025)
